Results published in patent US8304439B1, “Use of quaternary pyridinium salts as a therapeutic or preventing agent against ionizing radiation-induced damage” (priority 2007, dated 2012).

Legend:
[1] = test system: male BALB/c mice, whole body irradiation 7.5 Gy; test: Survival of mice during 30 days following whole body gamma irradiation, compounds given before or after irradiation (Example 2); format: in vivo; details: 7.5 Gy whole body, from day 7 before or day 7 after irradiation until day 30
Text: (§1) The survival rate of irradiated mice treated with the compounds in comparison control was used as a measure of a radioprotective effect.
The methodology followed was as described in B Hou. Z. W. Xu, C. W. Yang, Y. Gao, S. F. Zhao, C. G. Zhang: Protective effects of inosine on mice subjected to lethal total-body ionizing irradiation. J Radiat Res 48, 57-62, 2007. In brief, six-to-eight-week old male BALB/c mice obtained from the Nofer Institute of Occupational Medicine, ? ódź, Poland were used for the experiments. Whole bodies of the animals were exposed to a single irradiation (at the Military Institute of Chemistry and Radiometry) with gamma rays from the ^60Co source at 7.2 Gy/h mean dose rate to obtain the absorbed dose of 7.5 Gy per mouse. The absorbed doses were verified using thermoluminescent dosimeters implanted subcutaneously in the middle abdominal region. All the mice were maintained under specific pathogen-free conditions. Survival of the mice was assessed during 30 days following the irradiation.
The mice were divided into irradiated control group receiving no treatment, irradiated treatment group receiving MNA, irradiated treatment group receiving DMP, and irradiated treatment group receiving MAP. Each of the treatment groups was divided into two subgroups, the first group in which the animals received the tested compounds starting from day 7 before the irradiation, and the second group in which the animals received the tested compounds starting from day 7 after the irradiation.
The compounds were given dissolved in drinking water at 100 mg/kg of body weight/24 h (DMP and MAP) and 500 mg/kg of body weight (MNA)/24 h until day 30 post irradiation.

[2] = test system: murine leukemia L1210; details: cited from earlier work; for cytotoxicity in cultured leukemia cells: comparison among the three salts
[3] = test system: mice irradiated with lethal dose of about 7.5 Gy; test: Survival rate of mice after whole body irradiation, MNA given before irradiation (Example 1); format: in vivo; details: whole body irradiation 7.5 Gy; 300 mg/kg per day in drinking water from the 7th day preceding irradiation, continued after; untreated group approximately 20%; FIG. 1
Protocol: as §1
The methodology used was as described by Cheda et al., Radiation Research 2004, 161, 335 (animals and irradiation).
The survival rate of mice irradiated with lethal dose of about 7.5 Gy was tested. The treatment group received 1-methylnicotinamide chloride (MNA) in drinking water at an average dose of 300 mg/kg per day every day starting from the 7th day preceding the irradiation day. The administration was continued after irradiation. The control group received no treatment.

[4] = 100 mg/kg/24 h in drinking water, FIG. 3, FIG. 4

SMILES | protective activity (survival of mice) [1, 4] | concentration at which activity was observed ([2]; L1210 cells) | cytotoxicity in cultured leukemia cells [2] | survival rate of mice [3] | protective activity (survival of mice) ([1]; 500 mg/kg/24 h in drinking water, FIG. 2)
Cc1cc[n+](C)cc1.[Cl-] [DMP, 1,4-dimethylpyridinium chloride] | exert their protective activity both when administered prior irradiation and when administered after irradiation |  |  |  | 
C[n+]1cccc(C(N)=O)c1 [MNA, 1-methylnicotinamide chloride] |  | observed only at very high concentration | several thousands times lower | about 50% | exert their protective activity both when administered prior irradiation and when administered after irradiation
C[n+]1cccc([N+](=O)[O-])c1.[Cl-] [3-nitro-1-methylpyridinium chloride, 1-methyl-3-nitropyridinium chloride, reference compound] |  |  | highest cytotoxicity |  | 
CC(=O)c1ccc[n+](C)c1.[Cl-] [MAP, 1-methyl-3-acetylpyridinium chloride] | exert their protective activity both when administered prior irradiation and when administered after irradiation |  | several thousands times lower |  | 
